The source of these data is ChEMBL document CHEMBL1128457, “New antihistamines: substituted piperazine and piperidine derivatives as novel H1-antagonists” (J Med Chem, 1995).

Data set [1] has as its target Histamine H1 receptor (Cavia porcellus) (UniProt P31389). Description: In vitro antagonism of histamine-induced contraction of guinea pig ileum at 1x10E-7M. The format is functional, tissue-based.
Data set [2] deals with T1, Adrenergic receptor alpha-1 (Homo sapiens, UniProt P35348+P25100+P35368).
T1 sequence (P35348 whole entry): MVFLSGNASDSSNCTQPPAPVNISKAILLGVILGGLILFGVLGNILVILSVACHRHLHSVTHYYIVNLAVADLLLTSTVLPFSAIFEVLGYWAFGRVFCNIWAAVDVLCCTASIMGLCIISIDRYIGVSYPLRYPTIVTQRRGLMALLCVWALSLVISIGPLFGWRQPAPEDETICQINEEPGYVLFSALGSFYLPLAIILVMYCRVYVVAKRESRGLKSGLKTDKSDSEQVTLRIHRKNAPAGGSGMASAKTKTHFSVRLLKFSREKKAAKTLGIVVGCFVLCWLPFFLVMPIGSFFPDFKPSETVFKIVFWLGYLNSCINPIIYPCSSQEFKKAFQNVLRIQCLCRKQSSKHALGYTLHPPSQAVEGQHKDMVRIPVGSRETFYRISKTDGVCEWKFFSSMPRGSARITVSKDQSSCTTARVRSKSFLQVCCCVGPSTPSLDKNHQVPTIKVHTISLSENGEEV
T1 sequence (P25100 whole entry): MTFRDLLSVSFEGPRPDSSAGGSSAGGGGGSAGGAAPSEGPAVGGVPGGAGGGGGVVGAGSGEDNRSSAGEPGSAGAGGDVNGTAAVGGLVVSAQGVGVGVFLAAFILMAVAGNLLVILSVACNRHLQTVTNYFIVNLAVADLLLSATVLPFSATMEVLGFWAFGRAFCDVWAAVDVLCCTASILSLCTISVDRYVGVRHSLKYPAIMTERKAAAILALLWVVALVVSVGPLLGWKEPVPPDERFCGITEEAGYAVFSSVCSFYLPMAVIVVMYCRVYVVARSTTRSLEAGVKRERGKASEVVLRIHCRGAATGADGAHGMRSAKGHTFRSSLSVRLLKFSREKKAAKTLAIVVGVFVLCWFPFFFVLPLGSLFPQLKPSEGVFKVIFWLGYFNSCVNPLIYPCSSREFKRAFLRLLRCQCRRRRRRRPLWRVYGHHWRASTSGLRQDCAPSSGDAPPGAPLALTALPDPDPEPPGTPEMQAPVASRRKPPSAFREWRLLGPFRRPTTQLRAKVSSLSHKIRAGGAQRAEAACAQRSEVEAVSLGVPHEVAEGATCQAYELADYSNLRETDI
T1 sequence (P35368 whole entry): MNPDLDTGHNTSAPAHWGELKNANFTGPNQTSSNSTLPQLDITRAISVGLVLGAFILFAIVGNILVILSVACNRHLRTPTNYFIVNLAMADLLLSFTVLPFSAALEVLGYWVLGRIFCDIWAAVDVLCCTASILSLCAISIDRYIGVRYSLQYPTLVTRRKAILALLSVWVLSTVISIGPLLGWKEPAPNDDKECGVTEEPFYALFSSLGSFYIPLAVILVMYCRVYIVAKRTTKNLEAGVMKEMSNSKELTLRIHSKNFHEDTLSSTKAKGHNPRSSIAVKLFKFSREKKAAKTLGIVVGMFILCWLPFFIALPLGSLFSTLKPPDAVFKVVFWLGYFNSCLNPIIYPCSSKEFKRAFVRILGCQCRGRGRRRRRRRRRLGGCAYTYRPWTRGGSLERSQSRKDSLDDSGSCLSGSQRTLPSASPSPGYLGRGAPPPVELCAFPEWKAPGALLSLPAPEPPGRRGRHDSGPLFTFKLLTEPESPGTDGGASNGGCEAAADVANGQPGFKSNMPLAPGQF
Nature of the data set: Compound is evaluated for in vitro receptor binding affinity against Alpha-1 adrenergic receptor. The format is protein assay, Cavia porcellus.

Data set [3] addresses T2, Muscarinic acetylcholine receptor M1 (Homo sapiens, UniProt P11229).
T2 sequence (P11229 whole entry): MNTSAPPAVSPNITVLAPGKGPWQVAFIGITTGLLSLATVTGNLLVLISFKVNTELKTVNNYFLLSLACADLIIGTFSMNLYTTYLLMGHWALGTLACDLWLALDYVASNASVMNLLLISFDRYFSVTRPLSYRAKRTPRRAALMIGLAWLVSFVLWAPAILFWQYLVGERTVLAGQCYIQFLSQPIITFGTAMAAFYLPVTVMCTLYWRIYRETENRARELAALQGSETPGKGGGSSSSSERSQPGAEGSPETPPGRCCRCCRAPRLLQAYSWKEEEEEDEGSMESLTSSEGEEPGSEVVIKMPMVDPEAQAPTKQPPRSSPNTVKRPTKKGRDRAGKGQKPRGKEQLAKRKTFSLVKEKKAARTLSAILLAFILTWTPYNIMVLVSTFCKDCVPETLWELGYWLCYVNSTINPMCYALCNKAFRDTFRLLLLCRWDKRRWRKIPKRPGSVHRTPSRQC
Nature of the data set: Compound is evaluated for in vitro receptor binding affinity against Muscarinic acetylcholine receptor M1. Details: species or system Cavia porcellus.

Data set [4] is described as follows: Dissociation constant (KD) of the compound.
Data set [5] deals with Histamine H1 receptor (Cavia porcellus) (UniProt P31389). Description: Compound is evaluated for the inhibition of H1-receptor antagonists of histamine-induced skin wheal formation in the guinea pig with a pretreatment interval prior to histamine challenge at 1 h. The format is functional.
Chain of Histamine H1 receptor (Cavia porcellus) (P31389 whole entry): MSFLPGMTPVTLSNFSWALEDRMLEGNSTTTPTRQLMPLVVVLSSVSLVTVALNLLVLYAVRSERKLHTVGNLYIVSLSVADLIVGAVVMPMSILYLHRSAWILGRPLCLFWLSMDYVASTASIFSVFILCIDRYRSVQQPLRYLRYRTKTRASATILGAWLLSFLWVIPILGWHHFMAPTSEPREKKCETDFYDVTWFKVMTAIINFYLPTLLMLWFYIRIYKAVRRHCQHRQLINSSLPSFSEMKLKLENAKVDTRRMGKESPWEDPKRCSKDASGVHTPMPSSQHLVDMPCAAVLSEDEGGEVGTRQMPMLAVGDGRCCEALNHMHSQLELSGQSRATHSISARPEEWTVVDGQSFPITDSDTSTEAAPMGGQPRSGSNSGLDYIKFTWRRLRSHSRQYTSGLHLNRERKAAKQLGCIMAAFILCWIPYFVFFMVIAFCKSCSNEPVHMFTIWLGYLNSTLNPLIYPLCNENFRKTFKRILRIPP
For data set [6], the target named is T3, 5-hydroxytryptamine receptor 1A (Homo sapiens, UniProt P08908).
T3 sequence (P08908 whole entry): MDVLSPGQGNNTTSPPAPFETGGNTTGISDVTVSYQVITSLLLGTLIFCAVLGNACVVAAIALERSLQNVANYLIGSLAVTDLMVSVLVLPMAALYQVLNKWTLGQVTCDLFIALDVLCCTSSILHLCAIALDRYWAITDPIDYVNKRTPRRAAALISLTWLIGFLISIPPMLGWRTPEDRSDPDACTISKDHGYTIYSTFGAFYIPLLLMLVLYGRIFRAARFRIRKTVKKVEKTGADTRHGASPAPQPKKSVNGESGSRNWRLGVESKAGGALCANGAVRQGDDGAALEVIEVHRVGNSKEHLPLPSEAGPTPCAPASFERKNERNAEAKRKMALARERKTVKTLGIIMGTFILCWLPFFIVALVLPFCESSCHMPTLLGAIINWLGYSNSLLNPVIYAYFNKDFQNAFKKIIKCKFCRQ
Nature of the data set: Compound is evaluated for in vitro receptor binding affinity against 5-hydroxytryptamine 1A receptor. Details: species or system Cavia porcellus.

For data set [7], the target named is T4, Muscarinic acetylcholine receptor M2 (Homo sapiens, UniProt P08172).
T4 sequence (P08172 whole entry): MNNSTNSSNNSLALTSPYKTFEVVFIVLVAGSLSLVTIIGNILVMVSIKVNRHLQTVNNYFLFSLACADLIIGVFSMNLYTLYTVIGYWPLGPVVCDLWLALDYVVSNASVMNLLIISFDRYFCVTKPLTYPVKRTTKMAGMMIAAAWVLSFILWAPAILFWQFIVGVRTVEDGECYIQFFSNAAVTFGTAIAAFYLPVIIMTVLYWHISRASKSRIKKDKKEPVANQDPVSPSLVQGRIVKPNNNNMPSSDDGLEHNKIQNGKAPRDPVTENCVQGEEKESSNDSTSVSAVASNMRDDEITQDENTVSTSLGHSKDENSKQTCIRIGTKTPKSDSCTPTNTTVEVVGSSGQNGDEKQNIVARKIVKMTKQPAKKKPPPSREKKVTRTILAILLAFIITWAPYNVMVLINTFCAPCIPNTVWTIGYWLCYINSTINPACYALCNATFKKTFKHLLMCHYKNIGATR
Description: Compound is evaluated for in vitro receptor binding affinity against Muscarinic acetylcholine receptor M2. Further details: species or system Cavia porcellus.

Data set [8] deals with Histamine H1 receptor (Cavia porcellus, UniProt P31389). Description: Compound is evaluated for in vitro receptor binding affinity against H1 receptor.
Chain of Histamine H1 receptor (P31389 whole entry): as the sequence (P31389 whole entry) above
The nature of data set [9]: Partition coefficient (logP). The format is physicochemical. As to conditions: octanol/water.
The target of data set [10] is D(2) dopamine receptor (Homo sapiens, UniProt P14416). Nature of the data set: Compound is evaluated for in vitro receptor binding affinity against Dopamine receptor D2. Details: species or system Cavia porcellus.
Chain of D(2) dopamine receptor (P14416 whole entry): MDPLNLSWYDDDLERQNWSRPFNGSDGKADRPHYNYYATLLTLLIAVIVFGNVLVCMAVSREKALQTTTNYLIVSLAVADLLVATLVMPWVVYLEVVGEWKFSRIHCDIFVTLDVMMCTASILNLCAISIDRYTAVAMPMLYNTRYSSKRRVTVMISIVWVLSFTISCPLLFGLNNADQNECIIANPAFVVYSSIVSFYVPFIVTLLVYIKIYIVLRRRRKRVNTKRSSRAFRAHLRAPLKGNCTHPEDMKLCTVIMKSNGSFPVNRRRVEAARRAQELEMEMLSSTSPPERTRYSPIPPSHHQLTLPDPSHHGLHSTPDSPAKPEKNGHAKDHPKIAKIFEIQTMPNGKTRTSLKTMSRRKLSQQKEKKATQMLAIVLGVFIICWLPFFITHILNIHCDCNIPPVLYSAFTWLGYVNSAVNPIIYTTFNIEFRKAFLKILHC
Data set [11] has as its system Cavia porcellus. Nature of the data set: Compound is tested for protection by antihistamines against histamine-induced lethality in the guinea pig by oral administration with a pretreatment period of 1 h. The format is functional.
A short description of data set [12]: Potency relative to 7-[3-(4-Benzhydryloxy-piperidine-1-yl)-propyl]-1,3-dimethyl-3,7-dihydro-purine-2,6-dione; Relative potency = […]/[…].
Data set [13] can be described thus: pA2 value is determined compared to standard H1-antagonists. The format is ADME.
Data set [14] deals with Cavia porcellus. Description: Compound is tested for protection by antihistamines against histamine-induced lethality in the guinea pig by oral administration with pretreatment period of 18 h. The class given is functional.
In data set [15] the target is Histamine H1 receptor (Cavia porcellus) (UniProt P31389). Description: Compound is evaluated for the inhibition of H1-receptor antagonists of histamine-induced skin wheal formation in the guinea pig with a pretreatment interval prior to histamine challenge at 18 h. The format is functional.

Where only a bound is given, the exact number is not on record here.

In the case of `O=C1C2C3C=CC(C4CC34)C2C(=O)N1CCCCN1CCN(c2ccc(Cl)nn2)CC1` (centres undefined), in data set [1], the inhibition is 76%.
For `O=C1CC2(CCCC2)CC(=O)N1CCCCN1CCN(C(c2ccc(F)cc2)c2ccc(F)cc2)CC1`, in data set [1], the inhibition came to 77%.
Still for that read-out and setting: in the case of `O=C1C2C3C=CC(C4CC34)C2C(=O)N1CCCCN1CCN(C(c2ccccc2)c2ccccc2)CC1` (centres undefined) it was 50%.
As to `Cl.Cl.Cn1c(=O)c2c(ncn2CCCN2CCN(C(c3ccc(F)cc3)c3ccc(F)cc3)CC2)n(C)c1=O`, the IC50 is 59 nM in data set [2], 670 nM in data set [3], > 10000 nM in data set [7] and 220 nM in [8]. Besides, in data set [1], the inhibition came to 92%. The equilibrium dissociation constant (Kd) in data set [4] turned out to be 6.6 nM. Besides, the ED50 was found to be 0.45 mg/kg in [5] and 1.96 mg/kg in data set [11]. Also, the % inhibition in data set [6] turned out to be 38%; in [10] it was 43%. In data set [9], this compound had a logP of 1.81. The compound further showed a Relative potency in data set [12] of 0.0012. Besides, the pA2 in data set [13] is reported as 8.2.
Consider `O=C1C2C3C=CC(C4CC34)C2C(=O)N1CCN1CCN(C(c2ccc(F)cc2)c2ccc(F)cc2)CC1` (centres undefined), for which, in data set [1], the inhibition is < 10%.
In the case of `Cn1c(=O)c2c(ncn2CCCCN2CCN(C(c3ccc(Cl)cc3)c3ccc(Cl)cc3)CC2)n(C)c1=O`, the inhibition in data set [1] is 14%.
`O=C1C2C3C=CC(C4CC34)C2C(=O)N1CCN1CCN(C(c2ccccc2)c2ccccc2)CC1` (centres undefined): the inhibition in data set [1] is < 10%.
The same measure, in the same setting: in the case of `Cn1c(=O)c2c(ncn2CCCN2CCN(C(c3ccccc3)c3ccc(Cl)cc3)CC2)n(C)c1=O` (centres undefined) it was 29%; in that of `O=C1C2C3C=CC(C4CC34)C2C(=O)N1CCCCN1CCN(C(c2ccc(F)cc2)c2ccc(F)cc2)CC1` (centres undefined), 98%.
For the compound `COc1ccc(CCN2CCC(Nc3nc4ccccc4n3Cc3ccc(F)cc3)CC2)cc1` [ASTEMIZOLE], the Kd in data set [4] was 5.5 nM. Further, the ED50 in data set [5] was determined as 0.53 mg/kg. The compound further gave a pA2 in [13] of 8.3.
In turn, `O=C1C2C3C=CC(C4CC34)C2C(=O)N1CCCN1CCN(C(c2ccc(F)cc2)c2ccc(F)cc2)CC1` (centres undefined) returned an inhibition in data set [1] of 29%.
With `Cn1c(=O)c2c(ncn2CCCN2CCN(c3ccc(Cl)nn3)CC2)n(C)c1=O`, the inhibition in [1] was found to be 50%.
On the same count and under the same terms, in the case of `Cn1c(=O)c2c(ncn2CCCN2CCN(c3cncc(Cl)n3)CC2)n(C)c1=O` it was 29%.
In the case of `CC(C)(C)c1ccc(C(=O)CCCN2CCC(OC(c3ccccc3)c3ccccc3)CC2)cc1` [EBASTINE], the results for the ED50 in data set [14] and in [11] were 1.71 mg/kg and 0.45 mg/kg, respectively. Moreover, in [4], binding was put at a Kd of 4 nM. Also, in data set [9], the logP amounted to 2.74. In addition, in [13], the pA2 came to 7.4.
In turn, `CC(C)(C)c1ccc(C(O)CCCN2CCC(C(O)(c3ccccc3)c3ccccc3)CC2)cc1` (centres undefined) [TERFENADINE] returned a Kd in data set [4] of 33 nM.
Consider `Cn1c(=O)c2c(ncn2CCCN2CCN(c3nccnc3Cl)CC2)n(C)c1=O`, for which, in data set [1], the inhibition is < 10%.
For `CN(C)CCC(c1ccc(Cl)cc1)c1ccccn1` (centres undefined) [CHLORPHENIRAMINE], the ED50 in [15] is 1.07 mg/kg; in data set [5], 0.79 mg/kg. For the same compound, binding in data set [4] was characterised by a dissociation constant (Kd) of 3.7 nM. The compound also gave a pA2 in data set [13] of 8.4.
For `O=C1C2C3C=CC(C4CC34)C2C(=O)N1CCCN1CCN(C(c2ccccc2)c2ccc(Cl)cc2)CC1` (centres undefined), the inhibition in [1] is < 10%.
